Like-named read-outs stand apart in the source and are kept apart here.
Tests used:
[1] = target: T1, M4 muscarinic receptor (Homo sapiens, UniProt P08173); experiment: Functional mobilization of intracellular calcium (FLIPR, Fluo-3), M4-CHO cells; format: cell-based; conditions: for Emax: 100% efficacy is the maximum response obtained with the Carbachol control, read-out: M4 Efficacy
T1 construct: expressed in transfected cells; host or cells: CHO cells (M4-CHO, under puromycin, zeocin and blasticidin selection)
T1 sequence (P08173 1-479): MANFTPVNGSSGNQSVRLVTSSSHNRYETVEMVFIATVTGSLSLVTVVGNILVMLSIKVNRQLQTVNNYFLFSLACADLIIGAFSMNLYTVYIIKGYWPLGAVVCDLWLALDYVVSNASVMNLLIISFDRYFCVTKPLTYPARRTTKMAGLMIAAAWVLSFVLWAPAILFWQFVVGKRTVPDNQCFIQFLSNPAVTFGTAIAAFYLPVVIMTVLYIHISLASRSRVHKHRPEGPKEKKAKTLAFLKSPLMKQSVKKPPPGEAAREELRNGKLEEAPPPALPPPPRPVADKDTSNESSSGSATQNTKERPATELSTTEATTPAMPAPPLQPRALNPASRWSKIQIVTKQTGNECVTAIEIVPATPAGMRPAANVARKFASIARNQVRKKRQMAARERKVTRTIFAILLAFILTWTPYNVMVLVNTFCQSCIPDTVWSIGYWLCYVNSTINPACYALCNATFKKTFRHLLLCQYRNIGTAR
Procedure, shortened: (§1)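 Intracellular calcium was tracked by fluorescence (488/540 nm) over 60 sec after compound addition to dye-loaded CHO cells expressing the receptor. Inhibitory activity used a 15 min pre-incubation before carbachol at the subtype EC80.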

[2] = target: T2, M1 muscarinic receptor (Homo sapiens, UniProt P11229); experiment: Functional mobilization of intracellular calcium (FLIPR, Fluo-3), M1-CHO cells; format: cell-based; conditions: for Emax: 100% efficacy is the maximum response obtained with the Carbachol control, read-out: M1 Efficacy
T2 construct: expressed in transfected cells; host or cells: CHO cells (M1-CHO, under zeocin and G418 selection)
T2 sequence (P11229 1-460): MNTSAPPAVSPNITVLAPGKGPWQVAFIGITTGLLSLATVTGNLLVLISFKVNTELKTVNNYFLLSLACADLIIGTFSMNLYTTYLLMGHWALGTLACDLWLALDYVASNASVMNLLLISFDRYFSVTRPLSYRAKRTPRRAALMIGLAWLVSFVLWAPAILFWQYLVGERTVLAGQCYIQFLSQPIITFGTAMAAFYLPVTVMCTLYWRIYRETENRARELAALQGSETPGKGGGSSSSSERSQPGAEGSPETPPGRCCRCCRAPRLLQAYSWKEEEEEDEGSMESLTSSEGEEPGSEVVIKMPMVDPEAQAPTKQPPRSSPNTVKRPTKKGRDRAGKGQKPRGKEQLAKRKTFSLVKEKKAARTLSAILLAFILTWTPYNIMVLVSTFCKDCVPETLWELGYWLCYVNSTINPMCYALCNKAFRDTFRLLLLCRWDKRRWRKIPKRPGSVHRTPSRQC
Procedure, shortened: as §1

[3] = compound nos. 1-454, M4-CHO cells, calcium mobilization
[4] = compound nos. 1-454, M1-CHO cells, calcium mobilization

| SMILES | M4 Activity ([1]; compound nos. 1-454) | Emax ([1]; compound nos. 1-454) | M1 Activity ([2]; compound nos. 1-454) | Emax ([2]; compound nos. 1-454) | M4 Activity [1, 3] | M1 Activity [2, 4] | Emax ([1]; compound nos. 455-509) | M4 Activity ([1]; compounds 455-509) | Emax ([2]; compound nos. 455-509) | M1 Activity ([2]; compounds 455-509) |
| --- | --- | --- | --- | --- | --- | --- | --- | --- | --- | --- |
| CN(C)C(=O)N1CC2(CCN(CC3CCN(c4cnccn4)C3)CC2)c2cc(F)ccc21 (stereo not shown) [compound 448] | +++ (activity was measured to be less than or equal to 0.1 μM) | 55 to 70% | +++ (activity was measured to be less than or equal to 0.7 μM) | > 85% | – | – | – | – | – | – |
| CC(=O)N1CC2(CCN(C3CCCC(C(F)(F)F)C3)CC2)c2cc(F)ccc21 (stereo not shown) [compound 425] | + (activity was measured to be greater than or equal to 4.0 μM) | < 55% | + (activity was measured to be greater than or equal to 3.0 μM) | < 65% | – | – | – | – | – | – |
| CC(=O)N1CC2(CCN(C3CC4CCC(C3)N4C(=O)O[C@H]3CCOC3)CC2)c2cc(F)ccc21 (stereo partly shown) [compound 47] | – | 55 to 70% | – | 65 to 85% | ++ (activity was measured to be between 0.1 μM and 4.0 μM) | +++ (activity was measured to be less than or equal to 0.7 μM) | – | – | – | – |
| C#CCCOC(=O)N1C2CCC1CC(N1CCC3(CC1)CN(C(=O)N(C)C)c1ccc(F)cc13)C2 (stereo not shown) [compound 230] | – | > 70% | – | < 65% | ++ (activity was measured to be between 0.1 μM and 4.0 μM) | + (activity was measured to be greater than or equal to 3.0 μM) | – | – | – | – |
| CC(=O)N1CC2(CCN(C3CCCN(C(=O)OCCF)CC3)CC2)c2cc(F)ccc21 (stereo not shown) [compound 168] | – | > 70% | – | – | ++ (activity was measured to be between 0.1 μM and 4.0 μM) | ++ (activity was measured to be between 0.7 μM and 3.0 μM) | – | – | – | – |
| Cc1ccc2c(c1)C1(CCN(C3C4CCCC3CCC4)CC1)CN2 (stereo not shown) [compound 72] | – | 55 to 70% | – | 65 to 85% | ++ (activity was measured to be between 0.1 μM and 4.0 μM) | +++ (activity was measured to be less than or equal to 0.7 μM) | – | – | – | – |
| CN(C)C(=O)N1CCC2(CCN(C3CC4CCC(C3)N4c3cnccn3)CC2)c2ccccc21 (stereo not shown) [compound 486] | – | – | – | – | – | – | 25 to 100% | ++ (activity was measured to be between 2.0 μM and 5.0 μM) | > 100% | +++ (activity was measured to be less than or equal to 2.0 μM) |
| CCOC(=O)N1C2CCC1CC(N1CCC3(CC1)COc1ccc(F)cc13)C2 (stereo not shown) [compound 42] | – | > 70% | – | > 85% | ++ (activity was measured to be between 0.1 μM and 4.0 μM) | +++ (activity was measured to be less than or equal to 0.7 μM) | – | – | – | – |
| CC(=O)N1CC2(CCN(C3CCN(c4nccs4)CC3)CC2)c2cc(F)ccc21 [compound 432] | +++ (activity was measured to be less than or equal to 0.1 μM) | 55 to 70% | +++ (activity was measured to be less than or equal to 0.7 μM) | 65 to 85% | – | – | – | – | – | – |
| Cc1ccc2c(c1)C1(CCN(CC3CCC4CCC3C4)CC1)CN2 (stereo not shown) [compound 241] | – | > 70% | – | < 65% | + (activity was measured to be greater than or equal to 4.0 μM) | ++ (activity was measured to be between 0.7 μM and 3.0 μM) | – | – | – | – |
| COCCOC(=O)N1CCC(CN2CCC3(CC2)CN(C(C)=O)c2ccc(C)cc23)CC1 [compound 419] | + (activity was measured to be greater than or equal to 4.0 μM) | < 55% | + (activity was measured to be greater than or equal to 3.0 μM) | < 65% | – | – | – | – | – | – |
| CN(C)C(=O)N1CC2(CCN(CC3CCN(c4nccs4)C3)CC2)c2cc(F)ccc21 (stereo not shown) [compound 451] | +++ (activity was measured to be less than or equal to 0.1 μM) | – | ++ (activity was measured to be between 0.7 μM and 3.0 μM) | – | – | – | – | – | – | – |
| CCOC(=O)N1CCC(N2CCC3(CC2)CN(C(C)=O)c2ccc(-c4cccnc4)cc23)CC1 [compound 234] | – | 55 to 70% | – | 65 to 85% | +++ (activity was measured to be less than or equal to 0.1 μM) | +++ (activity was measured to be less than or equal to 0.7 μM) | – | – | – | – |
| CCCOC(=O)N1C2CCC1CC(N1CCC3(CC1)CN(C(=O)OC1CCC1)c1ccc(F)cc13)C2 (stereo not shown) [compound 329] | – | < 55% | – | 65 to 85% | + (activity was measured to be greater than or equal to 4.0 μM) | +++ (activity was measured to be less than or equal to 0.7 μM) | – | – | – | – |
| Cc1ncc(N2CCC(N3CCC4(CC3)CN(C(=O)N(C)C)c3ccc(F)cc34)CC2)nc1C [compound 472] | – | – | – | – | – | – | 25 to 100% | ++ (activity was measured to be between 2.0 μM and 5.0 μM) | > 100% | +++ (activity was measured to be less than or equal to 2.0 μM) |
| CCOC(=O)N1CCC(N2CCC3(CC2)CN(C(C)=O)c2ccc(-c4ccccc4C)cc23)CC1 [compound 78] | – | < 55% | – | 65 to 85% | ++ (activity was measured to be between 0.1 μM and 4.0 μM) | +++ (activity was measured to be less than or equal to 0.7 μM) | – | – | – | – |
| c1ccc2c(c1)NCC21CCN(CC2CC3CCC2C3)CC1 (stereo not shown) [compound 110] | – | < 55% | – | < 65% | ++ (activity was measured to be between 0.1 μM and 4.0 μM) | +++ (activity was measured to be less than or equal to 0.7 μM) | – | – | – | – |
| CC(=O)N[C@H]1CC2(CCN([C@@H]3C[C@@H]4CC[C@@H]3C4)CC2)c2ccccc21 [compound 158] | – | > 70% | – | > 85% | + (activity was measured to be greater than or equal to 4.0 μM) | +++ (activity was measured to be less than or equal to 0.7 μM) | – | – | – | – |
| CCCOC(=O)N1C2CCC1CC(N1CCC3(CC1)CN(C(=O)C1CC1)c1ccc(F)cc13)C2 (stereo not shown) [compound 389] | + (activity was measured to be greater than or equal to 4.0 μM) | < 55% | ++ (activity was measured to be between 0.7 μM and 3.0 μM) | 65 to 85% | – | – | – | – | – | – |
| O=C(O[C@H]1CCOC1)N1C2CCC1CC(N1CCC3(CC1)C(=O)Nc1ccccc13)C2 (stereo partly shown) [compound 301] | – | < 55% | – | < 65% | + (activity was measured to be greater than or equal to 4.0 μM) | + (activity was measured to be greater than or equal to 3.0 μM) | – | – | – | – |
| CCOC(=O)N1C2CCC1CC(N1CCC3(CC1)CN(C(=O)C1CC1)c1ccc(F)cc13)C2 (stereo not shown) [compound 214] | – | < 55% | – | < 65% | + (activity was measured to be greater than or equal to 4.0 μM) | + (activity was measured to be greater than or equal to 3.0 μM) | – | – | – | – |
| CCOC(=O)N1CCC(CN2CCC3(CC2)CN(C(C)=O)c2c(F)cccc23)CC1 [compound 307] | – | < 55% | – | 65 to 85% | + (activity was measured to be greater than or equal to 4.0 μM) | ++ (activity was measured to be between 0.7 μM and 3.0 μM) | – | – | – | – |

From patent US7858635B2 (priority 2005, dated 2010)
